The target in assay [1] is T1, human FKBP51FK1 (Homo sapiens, UniProt Q13451).
T1 sequence (Q13451 42-130 limits assumed): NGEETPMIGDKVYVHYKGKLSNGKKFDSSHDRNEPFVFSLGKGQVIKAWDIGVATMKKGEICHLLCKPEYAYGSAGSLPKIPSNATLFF
Briefly: Fluorescence polarization assay, binding to FK1 domain of FKBP51. The following applies: for IC50: binding affinity, fluorescence polarization assay; for inhibition at 5 µM: read-out: FKBP 51 FK1 % inhibition. (In general: Fluorescence polarisation rises when a labelled molecule tumbles more slowly, as on binding a larger partner.)

For assay [2], the target named is T2, human FKBP52FK1 (Homo sapiens, UniProt Q02790).
T2 sequence (Q02790 50-138 limits assumed): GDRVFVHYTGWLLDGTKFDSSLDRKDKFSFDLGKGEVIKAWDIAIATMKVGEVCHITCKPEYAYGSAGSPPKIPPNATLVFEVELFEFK
Briefly: Fluorescence polarization assay, binding to FK1 domain of FKBP52. The following applies: for IC50: binding affinity, fluorescence polarization assay; for inhibition at 5 µM: read-out: FKBP52 FK1 % inhibition.

Setting [3] is: at a concentration of 5 μM, library testing.

Like-named read-outs stand apart in the source and are kept apart here.

`CCOC(=O)C1CCCCN1S(=O)(=O)c1cccc([N+](=O)[O-])c1` (centres unmarked) [Ref. 2, Ethyl 1-(3-nitrophenylsulfonyl)piperidine-2-carboxylate, reference compound]: the IC50 in assay [1] and in assay [2] was over 100 µM each time.

With `COc1ccc(CC[C@@H](OC(=O)[C@@H]2CCCCN2S(=O)(=O)c2cc(Cl)c(NC(C)=O)c(Cl)c2)c2cccc(OCCN3CCOCC3)c2)cc1OC` [Compound 34, (S)-((R)-3-(3,4-dimethoxyphenyl)-1-(3-(2-morpholinoethoxy)phenyl)propyl)1-(4-acetamido-3,5-dichlorophenylsulfonyl)piperidine-2-carboxylate], the values for the IC50 in assay [1] and in assay [2] were 12.3 ± 18.9 µM and 8.3 ± 6.8 µM, respectively.

In the case of `COc1ccc(CC[C@@H](OC(=O)[C@@H]2CCCCN2S(=O)(=O)c2ccoc2)c2cccc(OCC(=O)O)c2)cc1OC` [Compound 53, 2-(3-((R)-3-(3,4-dimethoxyphenyl)-1-((S)-1-(furan-3-ylsulfonyl)piperidine-2-carbonyloxy)propyl)phenoxy)acetic acid], the inhibition at 5 µM in assay [1] came to 2%; in assay [2] (setting [3]), 5.7%.

With `COc1ccc(CC[C@@H](OC(=O)[C@@H]2CCCCN2S(=O)(=O)c2ccc(Oc3ccccc3)nc2)c2cccc(OCC(=O)O)c2)cc1OC` [Compound 43, 2-(3-((R)-3-(3,4-dimethoxyphenyl)-1-((S)-1-(6-phenoxypyridin-3-ylsulfonyl)piperidine-2-carbonyloxy)propyl)phenoxy)acetic acid], the inhibition at 5 µM in assay [1] (setting [3]) came out at 3.7%; in assay [2] (setting [3]), 11.4%.

Consider `COc1ccc(CC[C@@H](OC(=O)[C@@H]2CCCCN2S(=O)(=O)c2ccc3c(c2)N(C)CCO3)c2cccc(OCC(=O)O)c2)cc1OC` [Compound 51, 2-(3-((R)-3-(3,4-dimethoxyphenyl)-1-((S)-1-(4-methyl-3,4-dihydro-2H-benzo[b][1,4]oxazin-6-ylsulfonyl)piperidine-2-carbonyloxy)propyl)phenoxy)acetic acid], for which the inhibition at 5 µM was found to be 9.5% in assay [1] (setting [3]) and 6.6% in assay [2] (setting [3]).

For the compound `COc1ccc(CC[C@@H](OC(=O)[C@@H]2CCCCN2S(=O)(=O)c2ccc(-c3ccccc3)nc2)c2cccc(OCC(=O)O)c2)cc1OC` [Compound 44, 2-(3-((R)-3-(3,4-dimethoxyphenyl)-1-((S)-1-(6-phenylpyridin-3-ylsulfonyl)piperidine-2-carbonyloxy)propyl)phenoxy)acetic acid], the inhibition at 5 µM was determined as 2.6% in assay [1] (setting [3]) and 8.5% in assay [2] (setting [3]).

For the compound `COc1ccc(CC[C@@H](OC(=O)[C@@H]2CCCCN2S(=O)(=O)c2ccc3[nH]c(=O)sc3c2)c2cccc(OCC(=O)O)c2)cc1OC` [Compound 28, 2-(3-((R)-3-(3,4-dimethoxyphenyl)-1-((S)-1-(2-oxo-2,3-dihydrobenzo[d]thiazol-6-ylsulfonyl)piperidine-2-carbonyloxy)propyl)phenoxy)aceticacid], the IC50 in assay [1] stood at 14.7 ± 1.1 µM; in assay [2] it was 66.5 ± 27.1 µM.

As to `COc1ccc(CC[C@@H](OC(=O)[C@@H]2CCCCN2S(=O)(=O)c2cc(Cl)cc(Cl)c2)c2cccc(OCC(=O)O)c2)cc1OC` [Compound 13, 2-(3-((R)-1-((S)-1-(3,5-dichlorophenylsulfonyl)piperidine-2-carbonyloxy)-3-(3,4-dimethoxy-phenyl)propyl)phenoxy)acetic acid], the IC50 in assay [1] was found to be 22.6 ± 8.2 µM; in assay [2], 14.3 ± 1.8 µM.

With `COc1ccc(CC[C@@H](OC(=O)[C@@H]2CCCCN2S(=O)(=O)c2cc3ccccc3s2)c2cccc(OCC(=O)O)c2)cc1OC` [Compound 5], the inhibition at 5 µM was 12.4% in assay [1] (setting [3]) and 15.2% in assay [2] (setting [3]). In addition, the IC50 in assay [1] amounted to 67.1 ± 12.1 µM.

Regarding `COc1ccc(CC[C@@H](OC(=O)[C@@H]2CCCCN2S(=O)(=O)c2cccc(Cl)c2)c2cccc(OCC(=O)O)c2)cc1OC` [Compound 2], in assay [1], the IC50 amounted to 30.7 ± 15.7 µM and the inhibition at 5 µM was 17.5%. In addition, in assay [2], the IC50 is 32.8 ± 14.5 µM and the inhibition at 5 µM came out at 18%.

Consider `COc1ccc(CC[C@@H](OC(=O)[C@@H]2CCCCN2S(=O)(=O)c2c(Cl)cccc2Cl)c2cccc(OCC(=O)O)c2)cc1OC` [Compound 46, 2-(3-((R)-1-((S)-1-(2,6-dichlorophenylsulfonyl)piperidine-2-carbonyloxy)-3-(3,4-dimethoxyphenyl)propyl)phenoxy)acetic acid], for which the inhibition at 5 µM is 3.2% in assay [1] (setting [3]) and 9.5% in assay [2] (setting [3]).

In the case of `COc1ccc(CC[C@@H](OC(=O)[C@@H]2CCCCN2S(=O)(=O)c2c(C)nn(-c3ccccc3)c2C)c2cccc(OCC(=O)O)c2)cc1OC` [Compound 62, 2-(3-((R)-3-(3,4-dimethoxyphenyl)-1-((S)-1-(3,5-dimethyl-1-phenyl-1H-pyrazol-4-ylsulfonyl)piperidine-2-carbonyloxy)propyl)phenoxy)acetic acid], the inhibition at 5 µM in assay [1] (setting [3]) was found to be 0.9%; in assay [2] (setting [3]) it was 4.7%.

Turning to `COc1ccc(CC[C@@H](OC(=O)[C@@H]2CCCCN2S(=O)(=O)c2cccc3c2ccn3C)c2cccc(OCC(=O)O)c2)cc1OC` [Compound 49, 2-(3-((R)-3-(3,4-dimethoxyphenyl)-1-((S)-1-(1-methyl-1H-indol-4-ylsulfonyl)piperidine-2-carbonyloxy)propyl)phenoxy)acetic acid], the inhibition at 5 µM in assay [1] (setting [3]) was -0.8%; in assay [2] (setting [3]), 6.6%.

Take `COc1ccc(CC[C@@H](OC(=O)[C@@H]2CCCCN2S(=O)(=O)c2ccc(-c3ccccc3)s2)c2cccc(OCC(=O)O)c2)cc1OC` [Compound 56, 2-(3-((R)-3-(3,4-dimethoxyphenyl)-1-((S)-1-(5-phenylthiophen-2-ylsulfonyl)piperidine-2-carbonyloxy)propyl)phenoxy)acetic acid]: the inhibition at 5 µM in assay [1] (setting [3]) was 3.2%; in assay [2] (setting [3]), 9.5%.

For `COc1ccc(CC[C@@H](OC(=O)[C@@H]2CCCCN2S(=O)(=O)c2ccc(-c3ncccn3)cc2)c2cccc(OCC(=O)O)c2)cc1OC` [Compound 1, 2-(3-((R)-3-(3,4-dimethoxyphenyl)-1-((S)-1-(4-(pyrimidin-2-yl)phenylsulfonyl)piperidine-2-carbonyloxy)propyl)phenoxy)acetic acid], the inhibition at 5 µM amounted to 16.3% in assay [1] (setting [3]) and 15.2% in assay [2] (setting [3]). The IC50 in assay [1] was 62.8 ± 10.7 µM.

For `COc1ccc(CC[C@@H](OC(=O)[C@@H]2CCCCN2S(=O)(=O)c2cccc(F)c2)c2cccc(OCC(=O)O)c2)cc1OC` [Compound 11, 2-(3-((R)-3-(3,4-dimethoxyphenyl)-1-((S)-1-(3-fluorophenylsulfonyl)piperidine-2-carbonyloxy)propyl)phenoxy)acetic acid], the IC50 came to 18.2 ± 8.8 µM in assay [1] and 37.3 ± 13.6 µM in assay [2].

In the case of `COc1ccc(CC[C@@H](OC(=O)[C@@H]2CCCCN2S(=O)(=O)c2cc(Cl)c(OC)c(Cl)c2)c2cccc(OCC(=O)O)c2)cc1OC` [Compound 22, 2-(3-((R)-1-((S)-1-(3,5-dichloro-4-methoxyphenylsulfonyl)piperidine-2-carbonyloxy)-3-(3,4-dimethoxyphenyl)propyl)phenoxy)acetic acid], the IC50 came to 16.4 ± 1.7 µM in assay [1] and 17.7 ± 1.6 µM in assay [2].

As to `COc1ccc(CC[C@@H](OC(=O)[C@@H]2CCCCN2S(=O)(=O)c2ccc(F)cc2)c2cccc(OCC(=O)O)c2)cc1OC` [Compound 38, 2-(3-((R)-3-(3,4-dimethoxyphenyl)-1-((S)-1-(4-fluorophenylsulfonyl)piperidine-2-carbonyloxy)propyl)phenoxy)acetic acid], the results for the inhibition at 5 µM in assay [1] (setting [3]) and in assay [2] (setting [3]) were 4.3% and 6.6%, respectively.

For the compound `COc1ccc(CC[C@@H](OC(=O)[C@@H]2CCCCN2S(=O)(=O)c2cc3ccccc3o2)c2cccc(OCC(=O)O)c2)cc1OC` [Compound 54, 2-(3-((R)-1-((S)-1-(benzofuran-2-ylsulfonyl)piperidine-2-carbonyloxy)-3-(3,4-dimethoxyphenyl)propyl)phenoxy)acetic acid], the inhibition at 5 µM in assay [1] (setting [3]) is 5.5%; in assay [2] (setting [3]) it was 6.6%.

As for `COc1ccc(CC[C@@H](OC(=O)[C@@H]2CCCCN2S(=O)(=O)c2ccc(C)cc2)c2cccc(OCC(=O)O)c2)cc1OC` [Compound 63, 2-(3-((R)-3-(3,4-dimethoxyphenyl)-1-((S)-1-tosylpiperidine-2-carbonyloxy)propyl)phenoxy)acetic acid], the inhibition at 5 µM was found to be 3.2% in assay [1] and 3.8% in assay [2].

On to `COc1ccc(CC[C@@H](OC(=O)[C@@H]2CCCCN2S(=O)(=O)c2c(C)nn(C)c2C)c2cccc(OCC(=O)O)c2)cc1OC` [Compound 61, 2-(3-((R)-3-(3,4-dimethoxyphenyl)-1-((S)-1-(1,3,5-trimethyl-1H-pyrazol-4-ylsulfonyl)piperidine-2-carbonyloxy)propyl)phenoxy)acetic acid], for which the inhibition at 5 µM in assay [1] (setting [3]) is 5.5%; in assay [2] (setting [3]) it was 1.9%.

On to `COc1ccc(S(=O)(=O)N2CCCC[C@H]2C(=O)O[C@H](CCc2ccc(OC)c(OC)c2)c2cccc(OCC(=O)O)c2)cc1Cl` [Compound 16, 2-(3-((R)-1-((S)-1-(3-chloro-4-methoxyphenylsulfonyl)piperidine-2-carbonyloxy)-3-(3,4-dimethoxyphenyl)propyl)phenoxy)aceticacid], for which the values for the IC50 in assay [1] and in assay [2] were 18.8 ± 2.4 µM and 20.2 ± 3.5 µM, respectively.

On to `COc1ccc(CC[C@@H](OC(=O)[C@@H]2CCCCN2S(=O)(=O)c2cccnc2)c2cccc(OCC(=O)O)c2)cc1OC` [Compound 42, 2-(3-((R)-3-(3,4-dimethoxyphenyl)-1-((S)-1-(pyridin-3-ylsulfonyl)piperidine-2-carbonyloxy)propyl)phenoxy)acetic acid], for which the inhibition at 5 µM in assay [1] was determined as 6.6%; in assay [2], 9.5%.

Broadly, the IC50 is the concentration needed to halve the response being measured. Read a high IC50 as a need for much substance. In general, inhibition refers to the drop in the measured response relative to a control, in per cent.
